“And” between values parts separate entries of the source, which are not always exact repeats. Equal entries are not always repeated. Blank lines part the entries; values can stand above or below the molecule they belong to.
Key:
[1] = Saturated diclofenac solution in 0.9% NaCl; type: physicochemical; conditions: sodium diclofenac dissolved in 0.9% NaCl solution
Description: (§1) Initially, polyHEMA soft IOLs were impregnated by immersing them in a solution saturated with diclofenac (1.8 mg/ml, prepared by dissolving sodium diclofenac in a 0.9% solution of NaCl), at room temperature for 72 hours, carefully rinsed and then released into 1 ml of a 0.9% NaCl solution. After 6 hours, 24 hours and 96 hours, the diclofenac was measured in the release solution by HPLC, after which the IOL was rinsed and, for the intermediate durations, left to release in a new solution. It is understood that the released quantities correspond to the quantities previously absorbed and fixed in the IOLs In all the preceding examples the diclofenac was used at concentrations of 1.8 mg/ml or 1.5 mg/ml that is at or only slightly below the saturation level.

[2] = In vitro release of diclofenac from polyHEMA soft IOLs, impregnated for 72 hours (Example 7); type: physicochemical
Description: as §1, with “IOLs” for “IOLs In all the preceding examples the diclofenac was used at concentrations of 1.8 mg/ml or 1.5 mg/ml that is at or only slightly below the saturation level.”

[3] = In vitro release of diclofenac from polyHEMA soft IOLs, impregnated for 7 days (Example 8); type: physicochemical; conditions: for Released quantities: polyHEMA IOL impregnated 7 days in saturated diclofenac; for Cumulative or total released quantities: polyHEMA IOL impregnated 7 days
Description: as §1, with “The experiment of Example 7 was repeated leaving” for “In all”, “IOLs in” for “preceding examples”, “saturated solution for 7 days instead” for “diclofenac was used at concentrations”, “3. The quantities released were checked after 6 hours and 24 hours.” for “1.8 mg/ml or 1.5 mg/ml that is at or only slightly below the saturation level.”

[4] = In vitro kinetics of release of diclofenac at 35° C. over 14 days; type: physicochemical; conditions: release in 0.9% NaCl at 35° C.
Description: The following experiments were intended to determine more precisely the kinetics of release of diclofenac (in vitro experiments). As previously, the quantities released were measured by sampling the release medium (0.9% neutral NaCl solution) at intervals for measurement and renewing it for a new interval. The samples were taken after 6 hours and 24 hours and then every 24 hours for 14 days in total. To approximate the actual (i.e. in vivo) conditions of use more closely, release was effected at 35° C. The IOLs were impregnated by two different methods. […] A second experiment was carried out without sterilization, the IOLs remaining in the diclofenac solution for 24 hours. The quantities released were substantially the same, to within ±10%, and are set out in the table below in hours (H), days (D) and μg/ml.

[5] = Forced release of diclofenac after autoclaving and 10 days in the impregnation solution (Example 10); type: physicochemical
Description: Each of three hydrophilic acrylic implants of the type used in Example 9 was first introduced into the container with a 0.9% NaCl solution containing 1.5 mg/ml diclofenac solution. The container was then autoclaved at 122° C. for 30 minutes. After autoclaving, the IOLs were left in their impregnation solution for 10 days at ambient temperature. The procedure described in Example 9 was used to release the absorbed quantities of the diclofenac from the IOLs. The amounts released were respectively 83.57 μg, 101.66 μg, 84.16 μg or an average of 89.79 μg per implant.

[6] = Diclofenac absorbed versus time in the impregnation solution after sterilization (Example 12); type: physicochemical; conditions: for Average amount of diclofenac released (absorbed) per IOL: average of three IOLs; for amount of diclofenac released (absorbed) per IOL: individual tests
Description: This example included tests on 21 IOLs to ascertain the time it takes for the amount of diclofenac absorbed by the IOL to reach its equilibrium. Each IOL was immersed in 5 ml of 1.5 mg/ml diclofenac solution in deionized water and then sterilized as is conventional, namely at 120° C. for a period of 30 minutes. The sterilized IOLs were then allowed to cool and left in the impregnation solution at room temperature for respective periods of 10 days, 20 days, 35 days, 41 days, 50 days and 65 days. At the end of each of these periods, three IOLs were removed and the quantity of diclofenac was then measured by forced release comprising cycles in a double boiler at 97° C. followed by rest periods until the diclofenac was entirely released from the IOLs.
The amounts of diclofenac released and corresponding to the amounts absorbed for the respective periods are expressed in μg.

[7] = Diclofenac fixed from lower-concentration solutions after prior sterilization (Example 13); type: physicochemical; conditions: pre-sterilized hydrophilic acrylic IOL; for quantity of diclofenac fixed per IOL: 4 days of immersion
Description: In these tests, the hydrophilic acrylic IOLs were first sterilized in their sealed containers in a 0.9% NaCl solution, in accordance with the standard sterilization procedure used for conventional IOLs. The solution contained no active ingredient of any kind. After sterilization at 121° C. for 30 minutes the containers were opened and the IOLs transferred to other containers which had previously been filled with a 0.9% NaCl solution including respectively 0.9 mg/ml, 0.45 mg/ml and 0.225 mg/ml of diclofenac. The IOLs remained immersed in the impregnation solution for 4 days in each case. Thereafter the absorbed quantities of diclofenac were driven out of the IOLs in double boilers at 97° C. as described above. […] In a second series of tests conducted with an impregnation solution of 0.9% NaCl with 0.9 mg/ml under the same conditions as in the first series, except that the residence in the impregnation solution was 49 days. The resulting average quantity of diclofenac fixed by the IOLs was 502 μg per implant.

[8] = system: postoperative inflammation of the eye; assay: Anti-inflammatory effect of diclofenac-impregnated IOL after cataract operation in rabbits (Example 14); type: in vivo, rabbit; conditions: diclofenac-impregnated IOL versus same IOL without medicated product in opposite eye, three rabbits
Description: A test was carried out on three rabbits which were implanted with hydrophilic acrylic IOLs impregnated by autoclaving in a 1.5 mg/ml diclofenac solution at 120° C. for 30 minutes as described in Example 9 above. The object of this test was to determine the anti-inflammatory effect of diclofenac after a cataract operation. After extraction, the crystalline lens in each eye, the left eye was fitted with an impregnated IOL according to the invention and the right eye with the same kind of IOL with no medicated product therein. The eyes of the rabbit were examined by an operator on day one and microscopically by an ophtalmologist on day 7 and day 14 after the operation. The observations are set out in the following table.

[9] = system: inflammatory reactions of the eye; assay: Clinical examination of rabbit eyes implanted with indomethacin PMMA lenses (Example 3); type: in vivo; conditions: PMMA IOL impregnated with indomethacin implanted in rabbit eye, opposite eye as control
[10] = system: inflammatory reactions of the eye; type: in vivo
Description: (§2) Samples of aqueous humor (approximately 150 μl) and plasma (approximately 2 ml) were taken at random intervals.

in vivo = conditions: rabbit
Description: as §2

concentration of solution saturated with diclofenac [1]: 1800 µg/mL | Released quantities ([2]; polyHEMA IOL impregnated 72 hours at room temperature in saturated diclofenac, release into 1 ml 0.9% NaCl, 6 hours): 127 µg/mL | Cumulative or total released quantities ([2]; polyHEMA IOL impregnated 72 hours, 6 hours): 127 µg/mL | Cumulative or total released quantities ([2]; polyHEMA IOL impregnated 72 hours, 24 hours): 222 µg/mL | Cumulative or total released quantities ([2]; polyHEMA IOL impregnated 72 hours, 96 hours): 333 µg/mL | Released quantities ([2]; polyHEMA IOL impregnated 72 hours, release into new 1 ml 0.9% NaCl, 24 hours): 95 µg/mL | Released quantities ([2]; polyHEMA IOL impregnated 72 hours, release into new 1 ml 0.9% NaCl, 96 hours): 111 µg/mL | Released quantities ([3]; 6 hours): 122 µg/mL | Released quantities ([3]; 24 hours): 109 µg/mL | Cumulative or total released quantities ([3]; 6 hours): 122 µg/mL | Cumulative or total released quantities ([3]; 24 hours): 231 µg/mL | quantities released (Q) ([4]; IOL saturated with diclofenac, medium renewed each interval, 6 H): 95 µg/mL | quantities released (Q) ([4]; medium renewed, 2 D): 40 µg/mL | quantities released (Q) ([4]; medium renewed, 3 D): 30 µg/mL | quantities released (Q) ([4]; medium renewed, 4 D): 20 µg/mL | quantities released (Q) ([4]; medium renewed, 5 D): 18 µg/mL | quantities released (Q) ([4]; medium renewed, 6 D): 12 µg/mL | quantities released (Q) ([4]; medium renewed, 7 D): 10 µg/mL | quantities released (Q) ([4]; medium renewed, 8 D): 10 µg/mL | quantities released (Q) ([4]; medium renewed, 9 D): 11 µg/mL | quantities released (Q) ([4]; medium renewed, 10 D): 12 µg/mL | quantities released (Q) ([4]; medium renewed, 11 D): 14 µg/mL | quantities released (Q) ([4]; medium renewed, 12 D): 16 µg/mL | quantities released (Q) ([4]; medium renewed, 13 D): 18 µg/mL | quantities released (Q) ([4]; medium renewed, 14 D): 20 µg/mL | quantities released (Q) ([4]; medium renewed, 24 H): 80 µg/mL | average amount of diclofenac released per implant ([5]; as Example 10, average of three implants): 89.79 µg | amounts of diclofenac released per implant ([5]; hydrophilic acrylic IOL autoclaved at 122° C. for 30 minutes in 1.5 mg/ml diclofenac in 0.9% NaCl, then 10 days in the solution at ambient temperature, individual implants): 83.57 µg and 101.66 µg and 84.16 µg | Average amount of diclofenac released (absorbed) per IOL ([6]; Day 0): 33.58 µg | Average amount of diclofenac released (absorbed) per IOL ([6]; Day 35): 92.96 µg | Average amount of diclofenac released (absorbed) per IOL ([6]; Day 41): 102.39 µg | Average amount of diclofenac released (absorbed) per IOL ([6]; Day 50): 104.33 µg | Average amount of diclofenac released (absorbed) per IOL ([6]; Day 65): 102.37 µg | amount of diclofenac released (absorbed) per IOL ([6]; sterilized at 120° C. for 30 minutes in 1.5 mg/ml diclofenac in deionized water, Day 0): 36.01 µg and 31.13 µg and 33.59 µg | amount of diclofenac released (absorbed) per IOL ([6]; sterilized, then left in impregnation solution at room temperature, Day 10): 83.57 µg and 101.66 µg and 84.16 µg | amount of diclofenac released (absorbed) per IOL ([6]; sterilized, then left in impregnation solution, Day 20): 92.68 µg and 95.60 µg and 109.99 µg | amount of diclofenac released (absorbed) per IOL ([6]; sterilized, then left in impregnation solution, Day 35): 86.65 µg and 100.06 µg and 92.18 µg | amount of diclofenac released (absorbed) per IOL ([6]; sterilized, then left in impregnation solution, Day 41): 106.94 µg and 108.33 µg and 91.90 µg | amount of diclofenac released (absorbed) per IOL ([6]; sterilized, then left in impregnation solution, Day 50): 85.29 µg and 114.80 µg and 112.90 µg | amount of diclofenac released (absorbed) per IOL ([6]; sterilized, then left in impregnation solution, Day 65): 107.06 µg and 98.64 µg and 101.41 µg | quantity of diclofenac fixed per IOL ([7]; 0.225 mg/ml diclofenac in 0.9% NaCl): 70 µg | quantity of diclofenac fixed per IOL ([7]; 0.45 mg/ml diclofenac in 0.9% NaCl): 148 µg | quantity of diclofenac fixed per IOL ([7]; 0.90 mg/ml diclofenac in 0.9% NaCl): 276 µg | average quantity of diclofenac fixed per implant ([7]; 0.9 mg/ml diclofenac in 0.9% NaCl, 49 days in the impregnation solution): 502 µg
Compound: O=C(O)Cc1ccccc1Nc1c(Cl)cccc1Cl [diclofenac]
anti-inflammatory effect, summary [8]: real anti-inflammatory effect

Compound: COc1ccc2c(c1)c(CC(=O)O)c(C)n2C(=O)c1ccc(Cl)cc1 [indomethacin]
clinical examination: inflammatory reactions [9]: inflammatory reactions had disappeared by the tenth day from implantation | clinical observations: inflammatory reactions ([10]; polyHEMA lens impregnated with indomethacin, rabbit eye): inflammatory reactions disappeared at least as quickly as in Example 3 | clinical observations: tolerance of the lenses ([10]; rabbit, in vivo): well tolerated | concentration at 7 day (in vivo): ~0.11 µg/mL
